“And” between values parts separate entries of the source, which are not always exact repeats. Equal entries are not always repeated.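 Each compound was tested at five concentrations against cells in 96-well plates for 48 hours. The concentration for 50% growth inhibition is given as GI50. TGI: concentration producing complete growth inhibition.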
Columns and labels:
Assay in all cases: NCI-60 cell line screen, 48 h
CAKI-1 renal = tested on: CAKI-1 renal
EKVX NSCLC = tested on: EKVX NSCLC
HCC-2998 colon = tested on: HCC-2998 colon
IGROV1 ovarian = tested on: IGROV1 ovarian
MOLT-4 leukemia = tested on: MOLT-4 leukemia
NCI-H23 lung = tested on: NCI-H23 lung
UACC-62 melanoma = tested on: UACC-62 melanoma
UO-31 renal = tested on: UO-31 renal
DU-145 prostate = tested on: DU-145 prostate
MCF7 breast = tested on: MCF7 breast

Row | SMILES | TGI (CAKI-1 renal) | TGI (EKVX NSCLC) | TGI (HCC-2998 colon) | TGI (IGROV1 ovarian) [µM] | TGI (MOLT-4 leukemia) [µM] | TGI (NCI-H23 lung) | TGI (UACC-62 melanoma) | TGI (UO-31 renal) [µM] | GI50 (CAKI-1 renal) | GI50 (HCC-2998 colon) | GI50 (IGROV1 ovarian) | GI50 (MOLT-4 leukemia) | GI50 (NCI-H23 lung) | GI50 (UACC-62 melanoma) | GI50 (UO-31 renal) [µM] | GI50 (DU-145 prostate) | TGI (DU-145 prostate) | GI50 (EKVX NSCLC) | GI50 (MCF7 breast) [µM] | TGI (MCF7 breast) [µM]
1 | C[C@]12CC/C(=N\O)C=C1CC[C@@H]1C2CC[C@@]2(C)C1CC[C@@H]2OC1CCCCO1 (stereo not given in full) | > 10 µM | 31.9 µM | 29.5 µM | > 100 | 29.9 | 31.2 µM | > 10 µM | 43.7 | – | – | – | – | – | – | – | – | – | – | – | –
2 | CC(C)([NH-])CO.CC(C)([NH-])CO.[Cl][Cd][Cl] | 32.3 µM | – | 59.5 µM | 36.7 | 47.3 | 28.4 µM | 25 µM | > 100 | 18.3 µM | 19.3 µM | 19 µM | 21.8 µM | 13.9 µM | 7.82 µM | 35.4 | – | – | – | – | –
3 | Cn1cnc([N+](=O)[O-])c1Sc1nccn1-c1cccc2ccccc12 | > 100 µM | 92.4 µM | > 100 µM | > 100 | 43.7 | 50.6 µM | 33.9 µM | > 100 | – | – | – | – | – | – | – | – | – | – | – | –
4 | NCCCCCCCn1c2c(c3ccccc3c1=O)C(=O)c1ccccc1-2 | 5.25 µM | 21.7 µM | 7.56 µM | 3.58 | – | 8.36 µM | 3.85 µM | 2.73 | 1.96 µM | 2.69 µM | 1.43 µM | – | 2.98 µM | 2.01 µM | 1.29 | 0.915 µM | 2.12 µM | 10 µM | 1.1 | 2.71
5 | Cc1cccc(C(C)(C)C)c1NC(=O)CC1C(=O)Nc2ccccc2S1(=O)=O (stereo not given) | 31.3 µM | 14.5 µM | 20.5 µM | 21.8 | 5.19 | 18.9 µM | 18.6 µM | 23.3 | – | – | – | – | – | – | – | – | – | – | – | –
6 | CC(=O)C1C(c2ccc(N(C)C)cc2)c2cc3c(cc2OC1(C)O)OCO3 (stereo not given) | 87.8 µM | > 100 µM | – | > 100 | > 100 | > 100 µM | > 100 µM | > 100 | – | – | – | – | – | – | – | – | – | – | – | –
7 | C/C(=N\NS(=O)(=O)c1ccc(C)cc1)P(=O)(O)O | > 100 µM | > 100 µM | – | > 100 | – | > 100 µM | > 100 µM | > 100 | – | – | – | – | – | – | – | – | > 100 µM | – | – | > 100
8 | NCCOCCOCCNc1nc(-c2ccccc2)nc(N2CCN(c3ccccn3)CC2)n1 | 31.5 µM | – | 22.3 µM | 34.4 | 29.4 | 31.3 µM | 19.4 µM | 25.8 | 15.9 µM | 8.86 µM | 18.2 µM | 12.8 µM | 16.6 µM | 6.76 µM | 12.7 | 15.2 µM | 28.7 µM | – | 12.5 | 32.2
9 | COC(=O)C(C(=O)OC)C1CCCC(=O)C1 (stereo not given) | – | > 100 µM | > 100 µM | > 100 | > 100 | > 100 µM | > 100 µM | > 100 | – | – | – | – | – | – | – | – | – | – | – | –
10 | Cc1ccc(NC(=O)CC2Sc3ccccc3NC2=O)c(C)c1 (stereo not given) | 63.3 µM | > 100 µM | 27.3 µM | > 100 | 72.9 | 33.7 µM | 48.9 µM | 34.8 | – | – | – | – | – | – | – | – | – | – | – | –
11 | O=C(c1ccccc1)C1OC12C(=O)Nc1c(Cl)cc(Cl)cc12 (stereo not given) | > 78 µM | > 100 µM | > 100 µM | > 100 | 31 | > 100 µM | > 100 µM | > 100 | – | – | – | – | – | – | – | – | – | – | – | –
12 | NCC1OC(n2cnc3c(N)ncnc32)CC1O (stereo not given) | > 100 µM | > 100 µM | – | > 100 | > 100 | > 100 µM | > 100 µM | > 100 | – | – | – | – | – | – | – | – | > 100 µM | – | – | > 100
13 | Cc1ccc(S(=O)(=O)NC2(C=O)CCCC3CCCCC32)cc1 (stereo not given) | > 100 µM | – | > 100 µM | > 100 | > 100 | – | > 100 µM | > 100 | – | – | – | – | – | – | – | – | – | – | – | –
14 | O=C(Nc1ccc(Cl)c(Cl)c1)Nc1c(Oc2ccc(Cl)c(Cl)c2)ccc(Cl)c1S(=O)(=O)O | – | – | > 100 µM | – | > 100 | > 100 µM | > 100 µM | > 100 | – | 2.11 µM | – | 4.1 µM | 2.52 µM | 1.97 µM | 3.13 | 3.22 µM | > 100 µM | – | 0.388 | > 100
15 | C=C1CCC2C3(C)COC(c4ccccc4)OC3CCC2(C)C1/C=C/C1=CCOC1=O (stereo not given) | – | > 100 µM | 19.4 µM | 11.9 | 15.1 | 24.2 µM | 22.9 µM | 18.2 | – | 7.75 µM | 3.4 µM | 2.55 µM | 9.68 µM | 6.82 µM | 4.88 | 3.77 µM | 12.8 µM | 13.7 µM | 1.96 | 7.59
16 | C[n+]1c2cc(N)ccc2cc2ccc(N)cc21 | 9.03 µM [middle of 4 runs] | 2.31 µM [middle of 4 runs] | 3.43 µM [middle of 4 runs] | – | – | 4.49 µM [middle of 4 runs] | 2.86 µM [middle of 4 runs] | – | 1.04 µM [middle of 4 runs] | 925 nM [middle of 4 runs] | 1.46 µM [middle of 4 runs] | 547 nM [middle of 4 runs] | 1.27 µM [middle of 4 runs] | 1.26 µM [middle of 4 runs] | – | 1.36 µM [middle of 4 runs] | 5.57 µM [middle of 4 runs] | 0.263 µM and 0.831 µM and 0.261 µM | – | –
17 | CN1C(=O)C2C3C=C4c5ccccc5N(c5ccccc5)C4(C2C1=O)[C@H]1C(=O)N(C)C(=O)[C@@H]31 (stereo not given in full) | – | > 100 µM | > 100 µM | – | > 100 | > 100 µM | > 100 µM | > 100 | – | – | – | – | – | – | – | – | – | – | – | –
18 | CC(Nc1ccc(S(=O)(=O)N=C(N)N)cc1)c1c2ccccc2nc2ccccc12 (stereo not given) | 81 µM | > 100 µM | 82.7 µM | > 100 | 48.1 | 88.9 µM | > 10 µM | 65.6 | – | – | – | – | – | – | – | – | – | – | – | –
19 | O=C(c1ccccc1)C1OC1c1ccc([N+](=O)[O-])cc1 (stereo not given) | 6.56 µM | > 100 µM | 26.1 µM | 11.6 | – | 14.1 µM | 42.5 µM | 93.2 | 2.31 µM | 11 µM | 3.01 µM | – | 2.84 µM | 11.3 µM | 5.94 | – | – | 22.8 µM | 3.16 | > 100
20 | CC12CCC3(OCCO3)C(OC(=O)c3ccccc3)=C1CCC21OCCO1 (stereo not given) | > 100 µM | > 100 µM | > 100 µM | > 100 | > 100 | – | > 100 µM | > 100 | – | – | – | – | – | – | – | – | – | – | – | –

From PubChem BioAssay (NCI)
